Legend:
[1] = target: T1, BTK (Homo sapiens, UniProt Q06187); assay: Assay to determine activity against BTK; format: biochemical; conditions: 1 mM ATP, 2 nM BTK, 90 minutes at room temperature
T1 construct: purchased Cama
Method: Solutions of compounds (test or control) in DMSO were prepared at the desired concentrations, and serially diluted to 11 concentrations by 3-fold dilution in 384pp-plate using TECAN EVO200. 20 nL of stock were transferred to 384 plate using Echo550. DMSO was used as vehicle control.
(BTK was obtained from Cama; FLPeptide2 was obtained from PerkinElmer and Ibrutinib was obtained from Selleck.) 5 μL of ATP solution were added to each well, followed by addition of 15 μL of BTK solution to initiate the reaction. (Note the final volume of each well was 20 μL containing MgCl2 (10 mM), Brij-35 (0.01%), DTT (2 mM), BSA (0.05%), EGTA (1 mM), HEPE (pH7.5) (50 mM), FLPeptide (1.5 uM), ATP (1 mM) and BTK (2 nM).
The plates were incubated at room temperature for 90 minutes and then stopping buffer added (75 μL, containing 0.5 M EDTA) to terminate the reaction. Samples from each well were analyzed using EZ reader. The % remaining activity was calculated using read conversion ratio (CR) according to the equation: […]
XLFit (equation 201) was used to calculate IC50's by floating both bottom and top.

[2] = tested on: BTK in RAMOS B cells; assay: Assay to determine BTK activity in RAMOS B cells (anti-IgM, FLIPR Calcium 6); format: cell-based; conditions: anti-IgM EC80, calcium readout
Method: On the day before assay, Ramos B cells were plated in plating medium (RPMI1640 medium containing 1% FBS and 1× pencillin-streptomycin). On the day of the assay, 2× dye solution was prepared following the manual of the FLIRP Calcium 6 Assay Kit: Dilute the dye with assay buffer (20 mM HEPES in IX HBSS, pH7.4); Add probenecid to the final concentration of 5 mM; vortex vigorously for 1-2 minutes. Cells were collected by centrifuging, and the pellet was re-suspended in plating medium. After counting, cells were re-suspended at a density of 3×10^6/ml in plating medium. Equal volume of 2× dye solution was added to the cell suspension. Cells were then plated at 20 μl/well into a 384-well poly-D-lysine coated plate. Plate was centrifuged at 1000 rpm for 3 minutes and then incubated at 37° C. for 2 hours followed by an additional 15-minute incubation at 25° C. Compounds were prepared at 3× concentration in dilution buffer (20 mM HEPES and 0.1% BSA in 1×HBSS, pH 7.4). Serially diluted compound was transferred from source plate to a 384-well compound plate by using an Echo 550 (Labcyte). 20 μl/well compound dilution buffer was added to the compound plate and mixed on plate shaker for 2 mins. 4× EC80 of Anti-IgM (Jackson ImmunoResearch) was prepared in dilution buffer and 20 μl/well was added to a new 384-well compound plate. After 60 mins of incubation at 25° C. in the dark; cell plate, compound plate containing 4×EC80 of anti-IgM and FLIPR tips were placed into FLIPR (Molecular Devices). 10 ul/well of 4×EC80 anti-IgM was transferred to the cell plate by FLIPR. Plates were read for 160 sec with 1 sec interval.

T1 sequence (Q06187 whole entry): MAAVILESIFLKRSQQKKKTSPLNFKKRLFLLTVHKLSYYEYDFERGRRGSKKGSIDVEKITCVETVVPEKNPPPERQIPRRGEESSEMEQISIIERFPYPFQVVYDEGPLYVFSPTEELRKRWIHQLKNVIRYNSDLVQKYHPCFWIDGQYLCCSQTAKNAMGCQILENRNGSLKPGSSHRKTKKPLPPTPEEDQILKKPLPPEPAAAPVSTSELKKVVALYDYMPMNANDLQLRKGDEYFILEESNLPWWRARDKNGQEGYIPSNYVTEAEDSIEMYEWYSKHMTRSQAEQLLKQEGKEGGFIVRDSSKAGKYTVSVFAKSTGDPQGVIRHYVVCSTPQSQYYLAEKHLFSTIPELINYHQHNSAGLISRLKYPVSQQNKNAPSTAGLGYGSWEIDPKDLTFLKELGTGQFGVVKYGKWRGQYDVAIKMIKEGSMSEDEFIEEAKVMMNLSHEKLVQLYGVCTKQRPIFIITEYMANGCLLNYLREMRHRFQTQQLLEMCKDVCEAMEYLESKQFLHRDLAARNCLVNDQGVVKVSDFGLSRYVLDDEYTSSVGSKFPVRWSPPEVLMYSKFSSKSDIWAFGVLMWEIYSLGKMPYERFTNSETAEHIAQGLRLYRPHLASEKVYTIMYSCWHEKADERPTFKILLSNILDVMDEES

SMILES	IC50 [1] [nM]	IC50 ([2]; Homo sapiens, Ramos) [nM]	IC50 [2] [nM]
CC#CC(=O)N[C@H]1CCCN(c2c(F)cc(C(N)=O)c3[nH]c4c(c23)CCCCC4)C1 [Compound 4-1, (S)-1-(3-(but-2-ynamido)piperidin-1-yl)-2-fluoro-5,6,7,8,9,10-hexahydrocyclohepta[b]indole-4-carboxamide]	10 to 100	10 to 100	–
C=CC(=O)N1CC[C@@H]2CCN(c3c(F)cc(C(N)=O)c4[nH]c5c(c34)CCCCC5)C[C@@H]21 [Compound 4-2, 1-((3aS,7aR)-1-acryloyloctahydro-6H-pyrrolo[2,3-c]pyridin-6-yl)-2-fluoro-5,6,7,8,9,10-hexahydrocyclohepta[b]indole-4-carboxamide]	≥ 100	≥ 100	–
CC#CC(=O)N[C@H]1C[C@H](O)CN(c2c(F)cc(C(N)=O)c3[nH]c4c(c23)CCCCC4)C1 [Compound 4-3, 1-((3S,5S)-3-(but-2-ynamido)-5-hydroxypiperidin-1-yl)-2-fluoro-5,6,7,8,9,10-hexahydrocyclohepta[b]indole-4-carboxamide]	10 to 100	10 to 100	–
CC#CC(=O)N[C@H]1C[C@@H](O)CN(c2c(F)cc(C(N)=O)c3[nH]c4c(c23)CCCCC4)C1 [Compound 4-4, 1-((3S,5R)-3-(but-2-ynamido)-5-hydroxypiperidin-1-yl)-2-fluoro-5,6,7,8,9,10-hexahydrocyclohepta[b]indole-4-carboxamide]	10 to 100	≥ 100	–
C=CC(=O)Nc1cccc(-c2c(F)cc(C(N)=O)c3[nH]c4c(c23)CCCCC4)c1 [Compound 5-3, 1-(3-acrylamidophenyl)-2-fluoro-5,6,7,8,9,10-hexahydrocyclohepta[b]indole-4-carboxamide]	10 to 100	10 to 100	–
CC#CC(=O)N[C@@H]1C=C(c2c(F)cc(C(N)=O)c3[nH]c4c(c23)CCCCC4)CCC1 [Compound 5-9, 1-[(3S)-3-(but-2-ynoylamino)cyclohexen-1-yl]-2-fluoro-5,6,7,8,9,10-hexahydrocyclohepta[b]indole-4-carboxamide]	10 to 100	10 to 100	–
C=CC(=O)N1CCC=C(c2ccc(C(N)=O)c3[nH]c4c(c23)CC2(CC4)OCCO2)C1 [Compound 6-1, 4′-(1-prop-2-enoyl-3,6-dihydro-2H-pyridin-5-yl)spiro[1,3-dioxolane-2,6′-5,7,8,9-tetrahydrocarbazole]-1′-carboxamide]	10 to 100	10 to 100	–

The next lines start with the values.

IC50 [1] [nM]	IC50 ([2]; Homo sapiens, Ramos) [nM]	IC50 [2] [nM]	SMILES
10 to 100	10 to 100	–	C=CC(=O)N1CCC=C(c2ccc(C(N)=O)c3[nH]c4c(c23)CC2(CC4)CC2)C1 [Compound 7-1, 4-(1-prop-2-enoyl-3,6-dihydro-2H-pyridin-5-yl)spiro[5,7,8,9-tetrahydro-carbazole-6,1′-cyclopropane]-1-carboxamide]
≥ 100	≥ 100	–	C=CC(=O)N1CCC=C(c2ccc(C(N)=O)c3[nH]c4c(c23)CC2(CCC2)CC4)C1 [Compound 7-3, 5-(1-acryloyl-1,2,5,6-tetrahydropyridin-3-yl)-1,2,4,9-tetrahydrospiro[carbazole-3,1′-cyclobutane]-8-carboxamide]
≥ 100	≥ 100	–	C=CC(=O)N1CCc2c(cccc2-c2ccc(C(N)=O)c3[nH]c4c(c23)CC2(CCC2)CC4)C1 [Compound 7-4, 5-(2-acryloyl-1,2,3,4-tetrahydroisoquinolin-5-yl)-1,2,4,9-tetrahydrospiro[carbazole-3,1′-cyclobutane]-8-carboxamide]
10 to 100	10 to 100	–	C=CC(=O)N1CCC=C(c2ccc(C(N)=O)c3[nH]c4c(c23)CC2(CCCC2)CC4)C1 [Compound 7-5, 5-(1-acryloyl-1,2,5,6-tetrahydropyridin-3-yl)-1,2,4,9-tetrahydrospiro[carbazole-3,1′-cyclopentane]-8-carboxamide]
≥ 100	≥ 100	–	C=CC(=O)N1CCC=C(c2ccc(C(N)=O)c3[nH]c4c(c23)CC2(CCCO2)CC4)C1 (stereo not shown) [Compound 7-6, 5-(1-acryloyl-1,2,5,6-tetrahydropyridin-3-yl)-1,2,4,4′,5′,9-hexahydro-3′H-spiro[carbazole-3,2′-furan]-8-carboxamide]
< 10	< 10	–	C=CC(=O)N1CCC=C(c2c(F)cc(C(N)=O)c3[nH]c4c(c23)CC2(CC4)CC2)C1 [Compound 7-11, 5-(1-acryloyl-1,2,5,6-tetrahydropyridin-3-yl)-6-fluoro-1,2,4,9-tetrahydrospiro[carbazole-3,1′-cyclopropane]-8-carboxamide]
< 10	–	10 to 100	C=CC(=O)N1CCc2c(cccc2-c2c(F)cc(C(N)=O)c3[nH]c4c(c23)CC2(CC4)CC2)C1 [Compound 7-12, 5-(2-acryloyl-1,2,3,4-tetrahydroisoquinolin-5-yl)-6-fluoro-1,2,4,9-tetrahydrospiro[carbazole-3,1′-cyclopropane]-8-carboxamide]
10 to 100	≥ 100	–	C=CC(=O)N1CCc2c(cccc2-c2c(F)cc(C(N)=O)c3[nH]c4c(c23)CC2(CCC2)CC4)C1 [Compound 7-13, 5-(2-acryloyl-1,2,3,4-tetrahydroisoquinolin-5-yl)-6-fluoro-1,2,4,9-tetrahydrospiro[carbazole-3,1′-cyclobutane]-8-carboxamide]
≥ 100	≥ 100	–	C=CC(=O)N1CCc2c(cccc2-c2c(F)cc(C(N)=O)c3[nH]c4c(c23)CC2(CCCC2)CC4)C1 [Compound 7-14, 5-(2-acryloyl-1,2,3,4-tetrahydroisoquinolin-5-yl)-6-fluoro-1,2,4,9-tetrahydrospiro[carbazole-3,1′-cyclopentane]-8-carboxamide]
10 to 100	–	≥ 100	C=CC(=O)N1CCc2c(cccc2-c2c(F)cc(C(N)=O)c3[nH]c4c(c23)CC2(CCCO2)CC4)C1 (stereo not shown) [Compound 7-15, 5-(2-acryloyl-1,2,3,4-tetrahydroisoquinolin-5-yl)-6-fluoro-1,2,4,4′,5′,9-hexahydro-3′H-spiro[carbazole-3,2′-furan]-8-carboxamide]
< 10	–	10 to 100	C=CC(=O)N1CCc2c(cccc2-c2c(F)cc(C(N)=O)c3[nH]c4c(c23)CC2(CCCO2)CC4)C1 (stereo not shown) [Compound 7-16, 5-(2-acryloyl-1,2,3,4-tetrahydroisoquinolin-5-yl)-6-fluoro-1,2,4,4′,5′,9-hexahydro-3′H-spiro[carbazole-3,2′-furan]-8-carboxamide]
10 to 100	≥ 100	–	C=CC(=O)N1CCc2c(cccc2-c2c(F)cc(C(N)=O)c3[nH]c4c(c23)CC2(CCOC2)CC4)C1 (stereo not shown) [Compound 7-17, 5-(2-acryloyl-1,2,3,4-tetrahydroisoquinolin-5-yl)-6-fluoro-1,2,4,4′,5′,9-hexahydro-2′H-spiro[carbazole-3,3′-furan]-8-carboxamide]
10 to 100	–	≥ 100	C=CC(=O)N1CCc2c(cccc2-c2c(F)cc(C(N)=O)c3[nH]c4c(c23)CC2(CCOC2)CC4)C1 (stereo not shown) [Compound 7-18, 5-(2-acryloyl-1,2,3,4-tetrahydroisoquinolin-5-yl)-6-fluoro-1,2,4,4′,5′,9-hexahydro-2′H-spiro[carbazole-3,3′-furan]-8-carboxamide]
10 to 100	≥ 100	–	C=CC(=O)N1CCc2c(cccc2-c2c(F)cc(C(N)=O)c3[nH]c4c(c23)CC2(CCOCC2)CC4)C1 [Compound 7-19, 5-(2-acryloyl-1,2,3,4-tetrahydroisoquinolin-5-yl)-6-fluoro-1,2,2′,3′,4,5′,6′,9-octahydrospiro[carbazole-3,4′-pyran]-8-carboxamide]
10 to 100	10 to 100	–	C=CC(=O)N[C@H]1C[C@H](F)CN(c2c(F)cc(C(N)=O)c3[nH]c4c(c23)CC2(CC4)CC2)C1 [Compound 7-22, 5-((3S,5S)-3-acrylamido-5-fluoropiperidin-1-yl)-6-fluoro-1,2,4,9-tetrahydrospiro[carbazole-3,1′-cyclopropane]-8-carboxamide]
< 10	< 10	–	CC#CC(=O)N[C@H]1C[C@H](F)CN(c2c(F)cc(C(N)=O)c3[nH]c4c(c23)CC2(CC4)CC2)C1 [Compound 7-23, 5-((3S,5S)-3-(but-2-ynamido)-5-fluoropiperidin-1-yl)-6-fluoro-1,2,4,9-tetrahydrospiro[carbazole-3,1′-cyclopropane]-8-carboxamide]
